This is an account of results in patent publication US20050222251A1, “Dual inhibition of cyclooxygenase-2 and carbonic anhydrase” (AMOREPACIFIC CORPORATION, priority 2004, published 2005).

In data set [1] the target is T1, Human CA I (Homo sapiens, UniProt P00915).
T1 construct: purchased Sigma C-6165
Kind of data set: Inhibition assay for CA (Method A), CA I. The data set is classed as biochemical. To be noted: CO2 hydration, phenol red. The protocol: (§1) Compounds of Formula I were assessed for their inhibitory activities against human CAs according to methods described in a literature and a prior art. […] Details of the employed assay methods (Method A and Method B) for the inhibition of CAs are provided in the section of “MATERIALS AND METHODS” of this invention. Provided below are some of compounds of Formula I assayed for the inhibition of CAs. [drawing 6] [drawing 7] [drawing 8]
(§2) DMSO and buffer agents were obtained from Sigma. Distilled water was prepared in-house by distilling deionized water.
(§3) Inhibition Assay for CA (Method A): CA inhibitory activities by COX-2 inhibitors of this invention were assessed by a previously reported method. […] Then the interval was measured from the initiation of the reaction to the point of the color change of the solution from purple to yellow. During the entire reaction, the reaction solution was kept bubbled with CO2.

The target of data set [2] is T2, Human CA II (Homo sapiens, UniProt P00918).
T2 construct: purchased Sigma C-4936
Kind of data set: Inhibition assay for CA (Method A), CA II. In kind it is biochemical. To be noted: CO2 hydration, phenol red. The protocol: as §1, §2, §3

The target in data set [3] is T1, Human CA I. Kind of data set: Inhibition assay for CA (Method B, esterase activity), CA I. In kind it is biochemical. The note with it: p-nitrophenylacetate hydrolysis, pH 7.6. The protocol:
as §1, §2
(§4) The employed method is briefly described as follows. An aqueous reaction mixture consisting of 2 Wilbur-Anderson units of CA, 4 mM p-nitrophenylacetate, 5% DMSO, 0.1 M Na2SO4, and 50 mM Tris-HCl buffer at pH 7.6 was prepared to contain a designated amount of inhibitor. The esterase activity of CA (the hydrolysis of p-nitrophenylacetate) was followed by the increases in absorbance at 405 nm using an ELISA reader at room temperature. The initial rate (slope of the initial absorbance data) data from the absorbance data were used to calculate % inhibition of CA at a designated concentration of inhibitor according to equation (7). % Inhibition=[1−(Initial Rate with Inhibitor)/(Initial Rate without Inhibitor)]×100 (7)

Data set [4] has as its target T2, Human CA II. Kind of data set: Inhibition assay for CA (Method B, esterase activity), CA II. The data set is classed as biochemical. To be noted: p-nitrophenylacetate hydrolysis, pH 7.6. The protocol:
as §1, §2, §4

A short description of data set [5]: Pharmacokinetic studies in rats. In kind it is in vivo. To be noted: rat, plasma. The protocol:
Pharmacokinetic Studies in Rats: An appropriate amount of a compound suspended in 1% aqueous methylcelluose solution was administered to male SD rats by oral gavage. Blood samples were collected from the retro-orbital sinus at designated time points over 0 to 24 hours post dose. Plasma was separated from each withdrawn blood sample by centrifugation and the plasma sample was stored at 4° C. until HPLC analysis for the quantification of the compound. The plasma samples were analyzed by reverse phase HPLC using an appropriate internal standard and a pre-established calibration curve.

A short description of data set [6]: Plasma protein binding, filtration method, HPLC. The note with it: male, SD; pooled rat plasma at 1 μg/ml. In kind it is in vitro ADME. The protocol: Plasma Protein Binding of Compound: Plasma protein binding was determined for a compound of Formula I by a filtration method. An aliquot of a compound stock solution in DMSO was added to a designated volume of freshly prepared pooled plasma from male SD rats. The plasma solution was then subjected to filtration using a centrifuge filter (Amicon YM-30) at 4000 g for 30 min. The filtrate was analyzed by HPLC to determine the concentration of the compound.

Data set [7] in a line: Plasma protein binding, filtration method, 14C-labeled compound. The data set is classed as in vitro ADME. The note with it: Sprague-Dawley (SD), rat, broad range of concentrations. The protocol:
Alternatively, plasma protein binding was determined by a filtration method employing a ^14C-labeled compound of Formula I. Scintillation counting was used for analysis in place of HPLC.

A short description of data set [8]: Partitioning between plasma and erythrocytes, 14C-labeled compound. In kind it is in vitro ADME. The protocol: Alternatively, partitioning between plasma and erythrocytes was determined by using a ^14C-labeled compound of Formula I and whole blood withdrawn as heparinized. Scintillation counting was used for analysis in place of HPLC.
Data set [9] is described as follows: Repeat dose toxicity study in rats. The data set is classed as in vivo, rat.
The nature of data set [10]: Repeat dose toxicity study in monkeys. The protocol: Toxicokinetic studies were performed with treatment groups in monkeys. Satellite toxicokinetic groups were used for the toxicokinetic studies of treatment groups in rats. Animals at terminal sacrifice were evaluated for histopathological findings in the GI tract and other organs.
For data set [11], the system named is adjuvant-induced arthritis. To be noted: male Lewis rats, oral, bid; cited from earlier work.
In data set [12] the test system is carrageenan-induced thermal hyperalgesia. The note with it: male SD rats, orally administered; cited from earlier work.
The conditions of data set [13]: cited from earlier work; for primary target sites of the GI adverse events: repeated oral administrations.
The conditions of data set [14]: human whole blood, FDA pharmacology review; cited from earlier work.
For data set [15] the following is noted: FDA pharmacology review; valdecoxib in human whole blood; cited from earlier work.
The conditions of data set [16]: cited from earlier work.
A further data set relates to intraocular pressure. To be noted: oral administration, hypertensive rabbits; cited from earlier work.
[17] abbreviates: repeated oral administrations for 4 weeks.

Where two headings read alike, the source gives them in different places.

T1 sequence (P00915 whole entry): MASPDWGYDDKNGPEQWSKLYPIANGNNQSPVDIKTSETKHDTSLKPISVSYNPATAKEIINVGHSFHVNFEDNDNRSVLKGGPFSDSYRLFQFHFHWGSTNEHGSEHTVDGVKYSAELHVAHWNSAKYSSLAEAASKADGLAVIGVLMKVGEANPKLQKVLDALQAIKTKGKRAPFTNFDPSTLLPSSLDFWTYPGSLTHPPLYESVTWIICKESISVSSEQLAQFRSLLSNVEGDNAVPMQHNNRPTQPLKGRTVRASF

One may read the IC50 as the concentration that inhibits the measured activity by half. A lower IC50 goes with inhibition by little substance. Consider `CC1(C)OC(c2ccc(S(N)(=O)=O)c(F)c2)=C(c2cccc(F)c2)C1=O` [Example 4, 5-{4-(aminosulfonyl)-3-fluorophenyl}-2,2-dimethyl-4-(3-fluorophenyl)-3(2H)furanone], for which the IC50 on Human CA I [1] turned out to be 1700 nM; at Human CA II [2], 450 nM; against Human CA I [3], 210 nM; at Human CA II [4] it was 27 nM.
By fraction unbound is commonly meant free concentration divided by total concentration. A lower fraction unbound goes with little free substance. `CC1(C)OC(c2ccc(S(N)(=O)=O)cc2)=C(c2cccc(F)c2)C1=O` [Example 1, 5-{4-(aminosulfonyl)phenyl}-2,2-dimethyl-4-(3-fluorophenyl)-3(2H)furanone]: the IC50 is 3000 nM against Human CA I [1], 800 nM on Human CA II [2], 290 nM on Human CA I [3] and 63 nM on Human CA II [4]. Besides, the Cmax in [5] (male, SD, oral, 0.05 mg/kg, 82 ng/ml divided by 20, read-out: Cmax calculated for 0.1 mg/kg/day, bid (0.05 mg/kg)) is 4.1 ng/mL; in data set [5] (oral 1 mg/kg, male SD rats, read-out: plasma Cmax) it was 82 ng/mL. In addition, in data set [6], the fraction unbound at 1 μg/ml is less than 0.01. The same compound showed a fraction unbound in [7] of approximately 0.1. Besides, in data set [8], the “distribution to erythrocytes over plasma” value was “even more preferentially distribute to erythrocytes over plasma”. Further, the “primary target site of the intestinal adverse findings” value in data set [9] was “caecum”. Also, in [9] (oral, up to 4 weeks), the “dose limiting adverse effects” value is given as “Intestinal adverse effects (primarily in the caecum)”. The “daily systemic exposure without positive histopathological findings in the stomach” value in data set [9] (setting [17]) is ~30,000 hr×ng/ml. The “histopathological findings in the stomach” value in data set [9] (repeated oral administrations for 4 weeks, daily systemic exposure of ca 30,000 hr×ng/ml) is recorded as “no positive histopathological findings in the stomach”; in [10] (4 weeks, one out of 18 subjects), “one case of focal mucosal degeneration in the stomach”. Further, the “daily systemic exposure of the subject with the histopathological finding in the stomach” value in data set [10] (final day of the treatment) is recorded as > 20,000 hr×ng/ml. The “histopathological findings in the intestines” value in data set [10] (setting [17]) is recorded as “not associated with positive histopathological findings in the intestines”. The “ED50 by adjuvant-induced arthritis” value in data set [11] is given as 0.1 mg/kg/day. The “ED50 in carrageenan-induced thermal hyperalgesia” value in [12] is 0.25 mg/kg.
Turning to `Cc1cnc(NC(=O)C2=C(O)c3ccccc3S(=O)(=O)N2C)s1` [Meloxicam], the “primary target sites of the GI adverse events” value (“primary target sites” below) in [13] (rats) is given as “duodenum”.
On to `CC1(C)OC(c2ccc(S(N)(=O)=O)cc2)=C(c2cc(F)ccc2F)C1=O` [Example 2, 5-{4-(aminosulfonyl)phenyl}-4-(2,5-difluorophenyl)-2,2-dimethyl-3(2H)furanone], for which the IC50 was 3200 nM against Human CA I [1] and 740 nM against Human CA II [2].
Taken in the same sequence, the figures for `CC1(C)OC(c2ccc(S(N)(=O)=O)cc2F)=C(c2ccc(F)cc2)C1=O` [Example 8, 5-{4-(aminosulfonyl)-2-fluorophenyl}-2,2-dimethyl-4-(4-fluorophenyl)-3(2H)furanone] were 1900 nM and 420 nM.
In the case of `CS(=O)(=O)c1ccc(C2=C(c3ccccc3)C(=O)OC2)cc1` [rofecoxib], the “distribution ratio erythrocytes over plasma” value in data set [14] was “no noticeable preferential distribution”. The plasma protein binding in [15] is on record as 87%. Moreover, in data set [16] (25 mg/day, long term cancer prevention trial (APPROVe)), the thromboembolic cardiovascular events entry was “increased risk of thromboembolic cardiovascular events”. Moreover, the gastric toxicity entry in data set [13] (rats, doses where the intestinal toxicity began to come out) is recorded as “not associated with gastric toxicity”. In addition, in data set [13] (rats), the “primary target sites” value is “jejunum and ileum”.
Regarding `Cc1onc(-c2ccccc2)c1-c1ccc(S(N)(=O)=O)cc1` [valdecoxib], the plasma protein binding in data set [15] is 98%. Besides, the “effect on intraocular pressure” value with intraocular pressure was “reduced intraocular pressure”. The thromboembolic events entry in data set [16] (acute use, coronary artery bypass graft patients) is “increase in the thromboembolic events”. Moreover, the gastric toxicity result in data set [13] (rat, in vivo) is reported as “not associated with gastric toxicity”.
As to `CC1(C)OC(c2ccc(S(N)(=O)=O)c(F)c2)=C(c2cc(F)ccc2F)C1=O` [Example 5, 5-{4-(aminosulfonyl)-3-fluorophenyl}-4-(2,5-difluorophenyl)-2,2-dimethyl-3(2H)furanone], the IC50 was 1300 nM at Human CA I [1], 480 nM against Human CA II [2], 240 nM on Human CA I [3] and 14 nM against Human CA II [4].
As for `Cc1ccc(-c2cc(C(F)(F)F)nn2-c2ccc(S(N)(=O)=O)cc2)cc1` [celecoxib], in [16] (400 mg/day and 800 mg/day, long term cancer prevention trial (APC)), the thromboembolic events entry is listed as “increases in the thromboembolic events”. Besides, the gastric toxicity result in data set [13] (rat, in vivo) is reported as “not associated with gastric toxicity”. Further, the “primary target sites” value in data set [13] (rats) was “jejunum and ileum”.
Consider `CC1(C)OC(c2ccc(S(N)(=O)=O)c(F)c2)=C(c2cc(F)cc(F)c2)C1=O` [Example 7, 5-{4-(aminosulfonyl)-3-fluorophenyl}-4-(3,5-difluorophenyl)-2,2-dimethyl-3(2H)furanone], for which the figures for the IC50 on Human CA I [1] and on Human CA II [2] were 3400 nM and 630 nM, respectively.
Turning to `Cc1cc(C2=C(c3cccc(F)c3)C(=O)C(C)(C)O2)ccc1S(N)(=O)=O` [Example 10, 5-{4-(aminosulfonyl)-3-methylphenyl}-2,2-dimethyl-4-(3-fluorophenyl)-3(2H)furanone], the results for the IC50 on Human CA I [1] and against Human CA II [2] were 9100 nM and 5400 nM, respectively.
In the case of `COc1ccc2c(c1)c(CC(=O)O)c(C)n2C(=O)c1ccc(Cl)cc1` [indomethacin, reference compound], in [11], the “ED50 by adjuvant-induced arthritis” value is 0.3 mg/kg/day. Also, the “ED50 in carrageenan-induced thermal hyperalgesia” value in data set [12] is reported as approximately 1.0 mg/kg.
Regarding `CC1(C)OC(c2ccc(S(N)(=O)=O)c(F)c2)=C(c2ccc(F)c(F)c2)C1=O` [Example 6, 5-{4-(aminosulfonyl)-3-fluorophenyl}-4-(3,4-difluorophenyl)-2,2-dimethyl-3(2H)furanone], the IC50 against Human CA I [1] came to 5000 nM; at Human CA II [2], 910 nM.
With `CC1(C)OC(c2ccc(S(N)(=O)=O)cc2F)=C(c2cc(F)cc(F)c2)C1=O` [Example 9, 5-{4-(aminosulfonyl)-2-fluorophenyl}-4-(3,5-difluorophenyl)-2,2-dimethyl-3(2H)furanone], the IC50 stood at 4700 nM against Human CA I [1] and 630 nM on Human CA II [2].
For the compound `O=C(O)Cc1ccccc1Nc1c(Cl)cccc1Cl` [diclofenac], the “effect on intraocular pressure” value in the data set on intraocular pressure is “failed to reduce the intraocular pressure”.
